Assay results reported in article PMC4919066 (PLoS Pathogens, 2016).

Tests used:
[1] = tested on: HCMV; experiment: Generation of drug resistant virus; type: cell-based, Human Cytomegalovirus; conditions: 5 passages, UL97 sequencing
Experimental: Screening of drug resistant virus was performed as reported. Two million cells were plated on a 6-well plate and infected with HCMV (MOI 0.05). […] The cells were maintained in DMEM with 4% FBS until plaques were observed. The supernatants from these plates were used to infect fresh HFFs in a 6-well plate and each time drug concentration was increased by two fold. […] DNA extracted from supernatants collected at the last stage was used for UL97 sequencing.

[2] = tested on: MDM2-IE2; experiment: Co-immunoprecipitation MDM2-IE2 in transfected HEK293 cells; type: cell-based; conditions: IE1/2 transfection, emetine 75 nM or GCV 5 μM for 4 h
Experimental: HEK-293 cells seeded into 10 cm petri dishes were transfected with HCMV plasmid encoding IE1 and IE2 (pRL45), using Lipofectamine 2000 in serum free medium. After 6 h, 10% FBS containing media was added along with 10 μM of MG132. […] Cells were then harvested to prepare lysates for IP.
Non-infected, infected or emetine-treated HFFs were treated with MG132 (10 μM) for 12h. Cells were harvested after 24 hpi and lysed with IP buffer containing 150 mM NaCl, 50mM Tris pH 7.5, 2 mM EDTA, 0.5% TritonX-100 and 0.5% NP-40-40. 1 mg of lysate was precleared with bead slurry for 30 min. The precleared lysates were incubated with anti-MDM2 (2 μg) antibody overnight. The antibody complexes were isolated using protein A/G beads (Santa Cruz), washed three times with 50% IP buffer. The immunoprecipitate-protein A/G beads were boiled in SDS sample buffer, and the supernatant was analyzed on SDS-PAGE gels after immunoblotting as described previously. 1% of the cell lysate used for IP was loaded on gels as ‘Input’. Confirmatory reverse IPs were performed as described in each experiment. Isotype control antibodies included: rabbit IgG polyclonal, mouse IgG2a kappa and mouse IgG2b kappa monoclonal (Abcam). Mouse monoclonal RPS19 antibody (Abcam) served as an additional negative control for the IPs. Densitometry analysis was performed to determine relative ratio of immunoprecipitated protein to its input level.

[3] = tested on: HCMV Towne; experiment: HCMV plaque reduction assay in HFFs; type: cell-based, Human Cytomegalovirus; conditions: GCV 5 μM, 0.5 and 2 million cells/plate
Experimental: (§1) Human Foreskin Fibroblasts (HFFs) passage 12–16 (ATCC, CRL-2088) and mouse embryonic fibroblasts (MEFs) passage 9–14 (ATCC, CRL-1658) were grown in Dulbecco's Modified Eagle Medium (DMEM) containing 10% fetal bovine serum (FBS) (Gibco, Carlsbad, CA) in a 5% CO2 incubator at 37°C. Infection with HCMV or HSV was performed in HFFs, and infection with mouse CMV was performed in MEFs. For HCMV, cells were seeded in either a 96-well plate or 100 mm culture plates (Corning Costar, Sigma Aldrich) at 0.5 or 2 million cells /plate. Following 90 minute adsorption, media was removed and cells were washed with PBS. Media containing 4% FBS and compounds were added to each well. Infected treated HFFs were collected at 72 hpi and lysates were assayed for luciferase activity using a luciferase assay kit (Promega, Madison, WI) on GloMax-Multi+ Detection System (Promega). In second cycle assays, supernatants were collected from all conditions of the first cycle at 96 hpi and used for infection of fresh HFFs in 96-well plates. Luciferase activity was measured 72 h following second cycle infection. For HSV1-KOS/Dlux/oriS, a luciferase assay was performed at 24 hpi. Plaque assays were performed with clinical isolates of HSV2 and HCMV Towne (ATCC VR-977). HFFs were seeded at 3 million cells/plate in 12-well plates and infected 24 h later with HSV2 at 200 PFU/well. For HCMV or MCMV, HFFs or MEFs were seeded at 0.5 or 2 million cells /plate in a 12-well plate and infected 24 hours later at 100 PFU/well. Following virus adsorption (60 min and 90 min for HSV and HCMV, respectively), virus was aspirated, and DMEM containing 4% fetal bovine serum (FBS) with (for HSV) or without (for HCMV/MCMV) 0.5% carboxymethyl-cellulose, were added with the compounds at indicated concentrations into triplicate wells. After incubation at 37°C for 10 days (for HCMV), 3 days for MCMV or 2 days (for HSV), the overlay was removed and plaques were counted after crystal violet staining.

[4] = tested on: MCMV; experiment: MCMV plaque reduction assay in MEFs; type: cell-based, mouse CMV; conditions: GCV 5 μM, 0.5 and 2 million cells/plate
Experimental: The pp28-luciferase HCMV Towne and a GCV-resistant pp28-luciferase were used. The recombinant viruses express luciferase under the control of the late CMV gene promoter, pp28. Luciferase expression is activated 48–72 hours post infection (hpi). The recombinant viruses provide a highly-sensitive reporter system which correlates with plaque reduction assay. The Towne HCMV strain (ATCC VR-977) was used for plaque reduction, quantitative reverse transcriptase PCR (qRT-PCR), and immunoprecipitation assays. Human herpes virus strains were: luciferase HSV1- KOS/Dlux/oriS [52] and clinical isolates of HSV2. The clinical isolates were provided by the clinical microbiology laboratory with no identifiers that can link to a specific subject. Murid Herpesvirus (MCMV: ATCC VR-1399) was used for infection of mouse embryonic fibroblasts (MEFs) and mice.
as §1, with “For HSV1-KOS/Dlux/oriS, a luciferase assay was performed at 24 hpi. Plaque assays were performed with clinical isolates of HSV2 and HCMV Towne (ATCC VR-977). HFFs were seeded at 3 million cells/plate in 12-well plates and infected 24 h later with HSV2 at 200 PFU/well. For HCMV or MCMV, HFFs or MEFs were seeded at 0.5 or 2 million cells /plate in a 12-well plate and infected 24 hours later at 100 PFU/well. Following virus adsorption (60 min and 90 min for HSV and HCMV, respectively), virus was aspirated, and DMEM containing 4% fetal bovine serum (FBS) with (for HSV) or without (for HCMV/MCMV) 0.5% carboxymethyl-cellulose, were added with the compounds at indicated concentrations into triplicate wells.” left out

[5] = tested on: HCMV; experiment: Virus entry, pp65 immunofluorescence assay; type: cell-based, Human Cytomegalovirus; conditions: emetine 75 nM, GCV 10 μM, CpG 2006 10 μM, added 24 h prior to infection

`Nc1nc(O)c2ncn(COC(CO)CO)c2n1` [GCV, Ganciclovir] was tested, and the “selection of resistant virus with increasing drug concentration” value [1] was “selected for a C607Y mutation in UL97”, the “interaction between MDM2 and IE2” value [2] was “had no effect on this interaction” and the “HCMV inhibition and cell density” value [3] was “inhibited HCMV and MCMV irrespective of cell density”. For the same compound, the “MCMV inhibition and cell density” value [4] was “inhibited HCMV and MCMV irrespective of cell density” and the “inhibition of viral entry” value [5] was “neither emetine nor GCV inhibited viral entry”.
